Test [1] concerns the target T1, CDK2/cyclin A (Homo sapiens, UniProt P24941).
T1 construct: made in house; host or cells: CDK2: insect cells (baculovirus); cyclin A: E. coli
Kind of test: Inhibition of CDK2/cyclin A retinoblastoma kinase activity (Ki; % inhibition). In kind it is biochemical. The following applies: for Ki: apparent Ki, CDK2/cyclin A, Rb substrate. The protocol: (§1) Cyclin-dependent kinase activity was measured by quantifying the enzyme-catalyzed, time-dependent incorporation of radioactive phosphate from [^32P]ATP or [^33P]ATP into a protein substrate. Unless noted otherwise, assays were performed in 96-well plates in a total volume of 50 μL, in the presence of 10 mM HEPES (N-[2-hydroxyethyl]piperazine-N′-[2-ethanesulfonic acid]) (pH 7.4), 10 mM MgCl2, 25 μM adenosine triphosphate (ATP), 1 mg/mL ovalbumin, 5 μg/mL leupeptin, 1 mM dithiothreitol, 10 mM β-glycerophosphate, 0.1 mM sodium vanadate, 1 mM sodium fluoride, 2.5 mM ethylene glycol-bis(β-aminoethyl ether)-N,N,N′N′-tetraacetic acid (EGTA), 2% (v/v) dimethylsulfoxide, and 0.03-0.4 μCi [^32/33P]ATP per reaction. Reactions were initiated with enzyme, incubated at 30° C., and terminated after 20 minutes by the addition of ethylenediaminetetraacetic acid (EDTA) to 250 mM. The phosphorylated substrate was then captured on a nitrocellulose or phosphocellulose membrane using a 96-well filtration manifold, and unincorporated radioactivity was removed by repeated washing with 0.85% phosphoric acid. Radioactivity was quantified by exposing the dried membranes to a phosphorimager.
(§2) Compounds from combinatorial libraries were screened from 96-well plates for % inhibition of CDK activity at 30 nM theoretical compound concentration. Inhibition was measured relative to control wells that contained all reaction components including 2% (v/v) DMSO but no compound, after subtraction of background radioactivity measured in the absence of enzyme. Apparent Ki values of discrete compounds were measured by assaying enzyme activity in the presence of different inhibitor compound concentrations and subtracting the background radioactivity measured in the absence of enzyme. The kinetic parameters (kcat, Km for ATP) were measured for each enzyme under the usual assay conditions by determining the dependence of initial rates on ATP concentration. Inhibition data were fit to an equation for competitive inhibition using Kaleidagraph (Synergy Software), or were fit to an equation for competitive tight-binding inhibition using the software KineTic (BioKin, Ltd.).
CDK2 was purified using published methodology (Rosenblatt et al., “Purification and Crystallization of Human Cyclin-dependent Kinase 2,” J. Mol. Biol., 230, 1993, pp. 1317-1319) from insect cells that had been infected with a baculovirus expression vector. […] A complex of CDK2 and proteolyzed cyclin A was prepared and purified by gel filtration. The substrate for this assay was the same Rb substrate fragment used for the CDK4 assays, and the methodology of the CDK2/delta cyclin A and the CDK4/delta cyclin D3 assays was essentially the same, except that CDK2 was present at 10 nM or 19 nM. The duration of the assay was 60 or 75 minutes, during which the time-dependence of product formation was linear and initial rate conditions were met.

The target in test [2] is T2, human CDK4/cyclin D3 (Homo sapiens, UniProt P11802).
T2 construct: made in house; host or cells: insect cells co-infected with baculovirus vectors
In words: Inhibition of CDK4/cyclin D retinoblastoma kinase activity (Ki; % inhibition). In kind it is biochemical. To be noted: for Ki: apparent Ki, CDK4/cyclin D3, Rb substrate. The protocol:
as §1, §2
A complex of human CDK4 and genetically truncated (1-264) cyclin D3 was purified using traditional biochemical chromatographic techniques from insect cells that had been co-infected with the corresponding baculovirus expression vectors (see e.g., Meijer and Kim, “Chemical Inhibitors of Cyclin-Dependent Kinases,” Methods in Enzymol., 283 (1997), pp. 113-128.). The enzyme complex (5 nM) was assayed with 0.3-0.5 μg of purified recombinant retinoblastoma protein fragment (Rb) as a substrate. The engineered Rb fragment (residues 386-928 of the native retinoblastoma protein; 62.3 kDa) contains the majority of the phosphorylation sites found in the native 106-kDa protein, as well as a tag of six histidine residues for ease of purification. Phosphorylated Rb substrate was captured by microfiltration on a nitrocellulose membrane and quantified using a phosphorimager as described above. For measurement of tight-binding inhibitors, the assay duration was extended to 60 minutes, during which the time-dependence of product formation was linear and initial rate conditions were met.

Test [3] has as its system HCT-116 cell line. Kind of test: Inhibition of cell growth, MTT tetrazolium salt assay. In kind it is cell-based. The following applies: for IC50: Homo sapiens, HCT-116, 120 h, MTT, three to five days. The protocol: Inhibition of cell growth was measured using the tetrazolium salt assay, which is based on the ability of viable cells to reduce 3-(4,5-dimethylthiazol-2-yl)-2,5-[2H]-diphenyltetrazolium bromide (MTT) to formazan (Mossman, Journal of Immunological Methods, 65, (1983), pp. 55-58). The water-insoluble purple formazan product was then detected spectrophotometrically. The HCT-116 cell line was used as a representative cancer cell line and grown in 96-well plates. Cells were plated in McCoy's 5A Medium at a volume of 135 μl/well. Plates were incubated for four hours before addition of inhibitor compounds. Different concentrations of inhibitor compounds were added in 0.5% (v/v) dimethylsulfoxide (15 μL/well), and cells were incubated at 37° C. (5% CO2) for three to five days. At the end of the incubation, MTT was added to a final concentration of 0.2 mg/mL, and cells were incubated for 4 hours more at 37° C. After centrifugation of the plates and removal of medium, the absorbance of the formazan (solubilized in dimethylsulfoxide) was measured at 540 nm. The concentration of inhibitor compound causing 50% (IC50) or 90% ([…]) inhibition of growth was determined from the linear portion of a semi-log plot of inhibitor concentration versus percent inhibition. All results were compared to control cells treated only with 0.5% (v/v) dimethylsulfoxide.

The structures appear in SMILES notation. Where a name gives a salt, the structure may show the parent alone.

T2 sequence (P11802 whole entry): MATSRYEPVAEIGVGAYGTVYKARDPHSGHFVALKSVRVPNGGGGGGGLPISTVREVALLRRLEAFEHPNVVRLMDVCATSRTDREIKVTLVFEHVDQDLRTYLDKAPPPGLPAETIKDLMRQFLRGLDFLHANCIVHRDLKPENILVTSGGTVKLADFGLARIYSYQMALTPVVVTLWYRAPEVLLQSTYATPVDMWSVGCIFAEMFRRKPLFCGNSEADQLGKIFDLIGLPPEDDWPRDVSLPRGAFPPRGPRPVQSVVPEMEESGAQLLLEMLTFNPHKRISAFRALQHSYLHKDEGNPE
T2 sequence (P30281 1-264 partner limits assumed): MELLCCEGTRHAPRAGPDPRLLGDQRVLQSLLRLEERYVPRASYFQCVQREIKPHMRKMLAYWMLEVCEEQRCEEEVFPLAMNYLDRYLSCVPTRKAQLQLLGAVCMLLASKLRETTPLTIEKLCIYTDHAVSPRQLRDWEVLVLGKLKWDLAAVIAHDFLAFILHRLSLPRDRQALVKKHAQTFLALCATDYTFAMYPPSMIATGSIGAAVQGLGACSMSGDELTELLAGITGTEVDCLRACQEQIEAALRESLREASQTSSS

In the case of `CN1[C@@H]2CC[C@@H](C2)[C@@H]1CNC(=O)c1ccc(Nc2nc(N)c(C(=O)c3c(F)cccc3F)s2)cc1` (relative stereo) [Example A76, 4-[4-Amino-5-(2,6-difluoro-benzoyl)-thiazol-2-ylamino]-N-(2-methyl-2-aza-bicyclo[2.2.1]hept-3-endo-ylmethyl)-benzamide], the Ki was determined as 15 nM in test [1] and 120 nM in test [2]. Also, the IC50 in test [3] amounted to 1100 nM.
On to `Nc1nc(Nc2ccc(C(=O)NC[C@@H]3CCCC[C@H]3O)cc2)sc1C(=O)c1c(F)cccc1F` (relative stereo) [Example G350], for which the “CDK2 % Inhibition at 0.03 μM” value in test [1] (0.03 μM compound) came to 4%. The “CDK4 % Inhibition at 0.03 μM” value in test [2] (0.03 μM compound) is on record as 9%. Further, the “HCT-116 % Inhibition at 0.1 μM” value in test [3] (HCT-116 cells, 0.1 μM compound) turned out to be 24%. Further, in test [3] (HCT-116 cells, 0.25 μM compound), the “HCT-116 % Inhibition at 0.25 μM” value amounted to 41%.
For `CN(C)CCNC(=O)c1ccc(Nc2nc(N)c(C(=O)c3c(F)cccc3F)s2)cc1Cl` [C], the results for the Ki in test [1] and in test [2] were 170 nM and 27 nM, respectively. In test [3], the IC50 is 210 nM.
For the compound `CN(C)CCN1C(=O)c2ccc(Nc3nc(N)c(C(=O)c4c(F)cccc4F)s3)cc2C1=O` [E, 5-[4-Amino-5-(2,6-difluoro-benzoyl)-thiazol-2-ylamino]-2-(2-dimethylamino-ethyl)-isoindole-1,3-dione], the Ki in test [1] is 400 nM; in test [2], 240 nM.
Turning to `Nc1nc(Nc2ccc(C(=O)NCCN3CCOCC3)cc2)sc1C(=O)c1c(F)cccc1F` [Example A1, 4-[4-Amino-5-(2,6-difluoro-benzoyl)-thiazol-2-ylamino]-N-(2-morpholin-4-yl-ethyl)-benzamide], the values for the Ki in test [1] and in test [2] were 140 nM and 27 nM, respectively. In test [3], the IC50 was 750 nM.
On the same counts, the results for `CN(C)CCNC(=O)c1ccc(Nc2nc(N)c(C(=O)c3c(F)cccc3F)s2)cc1` [Example A4] are 230 nM, 16 nM and 190 nM.
The corresponding values for `Cc1ccc(CNC(=O)c2ccc(Nc3nc(N)c(C(=O)c4c(F)cccc4F)s3)cc2)o1` [Example A6, 4-[4-Amino-5-(2,6-difluoro-benzoyl)-thiazol-2-ylamino]-N-(5-methyl-furan-2-ylmethyl)-benzamide] are 7.5 nM, 15 nM and 220 nM.
On the same counts, the results for `CC(C)OCCNC(=O)c1ccc(Nc2nc(N)c(C(=O)c3c(F)cccc3F)s2)cc1` [Example A7, 4-[4-Amino-5-(2,6-difluoro-benzoyl)-thiazol-2-ylamino]-N-(2-isopropoxy-ethyl)-benzamide] are 61 nM, 26 nM and 410 nM.
For `Nc1nc(Nc2ccc(C(=O)NC[C@@H]3CCCN3)cc2)sc1C(=O)c1c(F)cccc1F` [Example A8, 4-[4-Amino-5-(2,6-difluoro-benzoyl)-thiazol-2-ylamino]-N-(pyrrolidin-2S-yl-methyl)-benzamide], the Ki in test [1] was 54 nM; in test [2] it was 5 nM. In addition, in test [3], the IC50 was 740 nM.
On the same counts, the results for `CC(=O)N1CCC[C@H]1CNC(=O)c1ccc(Nc2nc(N)c(C(=O)c3c(F)cccc3F)s2)cc1` [Example A10, 4-[4-Amino-5-(2,6-difluoro-benzoyl)-thiazol-2S-ylamino]-N-(1-Acetyl-pyrrolidin-2S-ylmethyl)-benzamide] are 290 nM, 49 nM and 1600 nM.
Consider `CN(C)C(C)(C)CNC(=O)c1ccc(Nc2nc(N)c(C(=O)c3c(F)cccc3F)s2)cc1` [Example A12, 4-[4-Amino-5-(2,6-difluoro-benzoyl)-thiazol-2-ylamino]-N-(2-dimethylamino-2-methyl-propyl)-benzamide], for which the results for the Ki in test [1] and in test [2] were 91 nM and 20 nM, respectively. The IC50 in test [3] amounted to 130 nM.
On the same counts, the results for `Nc1nc(Nc2ccc(C(=O)NC3CCN(Cc4ccccc4)CC3)cc2)sc1C(=O)c1c(F)cccc1F` [Example A13, 4-[4-Amino-5-(2,6-difluoro-benzoyl)-thiazol-2-ylamino]-N-(1-benzyl-piperidin-4-yl)-benzamide] are 79 nM, 9 nM and 210 nM.
On the same counts, the results for `CN(C)c1ccc(NC(=O)c2ccc(Nc3nc(N)c(C(=O)c4c(F)cccc4F)s3)cc2)cc1` [Example A16, 4-[4-Amino-5-(2,6-difluoro-benzoyl)-thiazol-2-ylamino]-N-(4-dimethylamino-phenyl)-benzamide] are 68 nM, 25 nM and 170 nM.
The corresponding values for `CNC(C)(C)CNC(=O)c1ccc(Nc2nc(N)c(C(=O)c3c(F)cccc3F)s2)cc1` [Example A18, 4-{4-Amino-5-[1-(2,6-difluoro-phenyl)-methanoyl]-thiazol-2-ylamino}-N-(2-methyl-2-methylamino-propyl)-benzamide Acetic Acid Salt] are 190 nM, 6 nM and 920 nM.
As for `COc1ccc(C)c(NC(=O)c2ccc(Nc3nc(N)c(C(=O)c4c(F)cccc4F)s3)cc2)c1` [Example A19, 4-[4-Amino-5-(2,6-difluoro-benzoyl)-thiazol-2-ylamino]-N-(5-methoxy-2-methyl-phenyl)-benzamide], the Ki in test [1] was 64 nM; in test [2] it was 105 nM. For the same compound, the IC50 in test [3] turned out to be 110 nM.
In the case of `Nc1nc(Nc2ccc(C(=O)NC3Cc4ccccc4C3)cc2)sc1C(=O)c1c(F)cccc1F` [Example A22, 4-[4-Amino-5-(2,6-difluoro-benzoyl)-thiazol-2-ylamino]-N-indan-2-yl-benzamide], the Ki in test [1] amounted to 6 nM; in test [2], 5 nM. Further, the IC50 in test [3] came to 170 nM.
As to `Nc1nc(Nc2ccc(C(=O)Nc3cccnc3)cc2)sc1C(=O)c1c(F)cccc1F` [Example A27, 4-[4-Amino-5-(2,6-difluoro-benzoyl)-thiazol-2-ylamino]-N-(pyridin-3-yl)-benzamide], the Ki in test [1] was determined as 66 nM; in test [2], 41 nM.
On the same counts, the results for `CN(C)CCNC(=O)c1ccc(Nc2nc(N)c(C(=O)C34CC5CC(CC(C5)C3)C4)s2)cc1` [Example A58, 4-[5-(1-Adamantan-1-yl-methanoyl)-4-amino-thiazol-2-ylamino]-N-(2-dimethylamino-ethyl)-benzamide] are 3400 nM and 1000 nM.
The corresponding values for `Nc1nc(Nc2ccc(C(=O)NCCOCCO)cc2)sc1C(=O)c1c(Cl)cccc1Cl` [Example B5, 4-[4-Amino-5-(2,6-dichloro-benzoyl)-thiazol-2-ylamino]-N-[2-(2-hydroxy-ethoxy)-ethyl]-benzamide] are 150 nM and 59 nM.

For the origin of these results see patent publication US6720346B2, “Thiazole benzamide derivatives and pharmaceutical compositions for inhibiting cell proliferation” (Agouron Pharmaceuticals, Inc., priority 2001, dated 2004).
